Results as given in patent US20210187014A1 (The Regents of the University of Colorado, a body corporate, priority 2018, published 2021).
“Also recorded” adds a separate entry of the source.

Key:
ATP5A1 = target: T1, ATP5A1 (Homo sapiens, UniProt P25705); assay: 55FeCl3 +/- Ent in HEK293T cell lysates, ATP5A1 immunoprecipitation; format: binding
T1 construct: His

mice = assay: Growth of mice fed control (iron-adequate) diet, Ent in drinking water; format: in vivo; conditions: male mice, drinking water pH 5.5
Source text: The present inventors treated 4.5-week male mice with the iron-adequate control diet (CD) described above, the matched control for the iron-deficient diet (IDD). As shown above in FIGS. 20 and 21, mice fed this diet had relative normal hemoglobin and iron levels. […] This experiment was incomplete because the hemoglobin and iron levels were not measured, which will be repeated.

HEK293 cells = assay: Cellular iron level by Calcein AM fluorescence in HEK293 cells +/- iron chelator DFO; format: cell-based, human
Description: Here, a similar test was done in human HEK293 cells. […] The present inventors then created a low-iron condition by adding an iron chelator, Deferoxamine (DFO) to the medium (FIG. 18A). […] The assay was also performed using mouse intestinal epithelial (MODE-K) cells.

C. elegans [1] = assay: Iron level in live worms by calcein-AM staining (and pftn-2::GFP reporter); format: in vivo
Description: The present inventors employed the commonly used fluorescent cell-permeable dye, calcein AM, of which emission is quenched by iron binding, and applied it to live worms as previously described to estimate the overall iron level in the host.
Live imaging of iron in worms was done as previously described (James et al., 2015). Briefly, worms were collected at different culture conditions, then co-cultured in M9 with 0.05 ug/ML calcein-AM (Invitrogen) for 1 h, then washed 3 times in 1 ml M9. Samples were then mounted for fluorescence microscopy.
For calcein-AM staining, the original images taken with GFP channel were used to measure the intensity. The value of staining intensity was determined by subtracting the background intensity from the calcein-AM stained intestine.

C. elegans [2] = assay: Siderophore toxicity test: worm growth and mitochondrial morphology (mtGFP); format: in vivo; conditions: in vivo
Source text: FIG. 8. Bacterial enterobactin promotes C. elegans development. […] (8E) The entA- and entF-mutant E. coli strains colonized the host gut as efficiently as the parental wild-type strain. (FIG. 8F) Cartoon diagram of feeding condition, microscope images and bar graph showing that neither pyoverdine nor ferrichrome caused obvious growth defects in worms fed heat-killed food plus wild-type, live E. coli. (FIG. 8G) Fluorescence microscopy of worms containing mtGFP under the same feeding condition as in (FIG. 8F). […] “n” =number of worms scored. Data are represented as mean±SEM. ***P<0.0001.

[3] = test system: anemic mouse model (dietary anemia); assay: Anemic mouse model (dietary anemia), Ent by oral gavage; format: in vivo; conditions: female mice on iron-deficient diet
Source text: The inventors fed 3-week old female mice an iron-deficient diet (IDD) (or control diet) for 6 weeks to induce anemia (confirmed by hemoglobin measurement). […] As generally shown in FIGS. 20A-B, feeding IDD caused a drastic reduction of both hemoglobin and iron levels. […] A commercial kit (BioAssay system) was used to obtain hemoglobin level. Under normal conditions, ˜70% of the iron absorbed from the intestine is used to generate hemoglobin, and only a small percent may be stored in the liver or other somatic tissues if iron is in excess. Under anemic conditions, a great percentage of iron that has entered mitochondria (then bound to heme) may be funneled to erythropoiesis. Therefore, it was not unexpected to see little impact of Ent supplementation on liver iron level (iron storage).

mitochondria = assay: In vitro mitochondrial iron uptake assay, mitochondria purified from worms (55Fe); format: biochemical, C. elegans; conditions: purified mitochondria incubated with 55FeCl3 +/- Ent
Description: Mitochondrial iron uptake assays. For the in vitro mitochondrial iron uptake assay, the present inventors modified a published procedure for analysis of mammalian cells (Devireddy et al., 2010). […] The samples were incubated for 4 hours at room temperature, and the amount of 55Fe in lysed mitochondria was determined by liquid scintillation.

[4] = test system: murine intestinal epithelial (MODE-K) cells; assay: Cellular iron level by Calcein AM fluorescence in MODE-K cells +/- DFO; format: cell-based, mouse
Description: The present inventors then created a low-iron condition by adding an iron chelator, Deferoxamine (DFO) to the medium (FIG. 18A). […] The assay was also performed using mouse intestinal epithelial (MODE-K) cells.

succinate dehydrogenase = assay: Succinate dehydrogenase enzymatic activity in worms +/- Ent; format: in vivo, C. elegans; conditions: worms fed Ent-deficient food
Description: Enzymatic activity. Succinate Dehydrogenase (MAK197; Sigma) and aconitase (MAK051; Sigma) enzymatic activity were measured using the kits according to the manufacturer's protocol. […] After 48 hours culturing, worms were lysed in ice-cold conditions using the lysis buffer provided in the kit, supplemented with […]. Equal amounts of protein were used for the enzymatic activity assay.

HEK293T cells = assay: CAS staining of siderophore level in HEK293T cells; format: cell-based, human; conditions: Ent supplemented to the culture medium
ATP-1 = target: T2, ATP-1 (Caenorhabditis elegans, UniProt Q9XXK1); assay: Iron-binding assay: 55FeCl3 +/- siderophore in worm lysates, ATP-1 immunoprecipitation; set-up: species or system C. elegans
T2 construct: His; made in house; host or cells: E. coli (given only for the three ATP-1 segments)
T2 sequence (Q9XXK1 whole entry): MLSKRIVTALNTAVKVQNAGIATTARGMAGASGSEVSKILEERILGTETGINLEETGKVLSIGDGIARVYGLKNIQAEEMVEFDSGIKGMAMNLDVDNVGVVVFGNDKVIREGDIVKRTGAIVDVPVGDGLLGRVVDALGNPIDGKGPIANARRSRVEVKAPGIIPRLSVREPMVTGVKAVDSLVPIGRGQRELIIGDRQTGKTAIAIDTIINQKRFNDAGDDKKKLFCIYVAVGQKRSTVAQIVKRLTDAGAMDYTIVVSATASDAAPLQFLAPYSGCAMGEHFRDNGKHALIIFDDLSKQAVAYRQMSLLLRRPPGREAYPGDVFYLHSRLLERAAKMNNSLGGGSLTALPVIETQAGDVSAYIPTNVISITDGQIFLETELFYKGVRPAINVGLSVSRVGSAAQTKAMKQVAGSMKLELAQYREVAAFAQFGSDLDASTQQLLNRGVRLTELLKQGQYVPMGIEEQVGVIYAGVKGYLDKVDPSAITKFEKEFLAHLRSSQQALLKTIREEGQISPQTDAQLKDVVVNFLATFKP
Description: The present inventors added radiolabeled iron (55FeCl3) to worm lysates and then immunoprecipitated ATP-1.
In vitro binding assay. (a) Ent-biotin pull-down of total proteins: Ent-biotin and streptavidin beads were used to pull down interacting proteins from worm total protein extracts (same method as that in initial screen for Ent-binding proteins). Western blots were performed to detect ATP-1 (Thermo Fisher 43-9800). […] The assay was then quenched with a standard 5×SDS-PAGE_loading buffer (reducing). Proteins were separated by SDS-PAGE and transferred to_nitrocellulose membranes. The membranes were blocked for 1 h with 5% BSA in Trisbuffered saline (TBS) with 0.1% Tween 20 (TBST) at room temperature, followed by incubation for 1 h with horseradish peroxidase streptavidin (Cell Signaling_Technology,3999S) in TBST. After four washes with changes every 15 min in TBST, the_biotinylated proteins were visualized by enhanced chemiluminescence (GE Healthcare,_RPN2232). […] After IP, the amount of 55Fe was determined by liquid scintillation.

MEL cells = assay: Erythroid differentiation of MEL cells (color change of cell pellets); format: cell-based, murine; conditions: equimolar supplementation
Description: FIG. 27. Ferric Enterobactin supplementation benefits differentiation of erythroid progenitor cells (MEL) to red blood cells. (FIG. 27A) MEL cells were grown with the indicated treatments. Cell pellets are shown. (FIG. 27B) Quantification of MEL color change presented as the average intensity of each cell pellet, normalized to the intensity of the control. Error bars are the standard deviation of three technical replicates.
MEL cells are murine erythroid progenitor cells that are arrested at the proerythroblast stage. In the laboratory, these cells are induced to undergo erythroid differentiation to red blood cells by addition of various chemicals (e.g. 2% DMSO) (Friend, 1971). Erythroid differentiation is an iron-dependent process that results in a color change in the differentiated cells. The present inventors tested if addition of Fe-Ent would positively impact the differentiation of wild-type MEL cells to red blood cells.

T1 sequence (P25705 44-553): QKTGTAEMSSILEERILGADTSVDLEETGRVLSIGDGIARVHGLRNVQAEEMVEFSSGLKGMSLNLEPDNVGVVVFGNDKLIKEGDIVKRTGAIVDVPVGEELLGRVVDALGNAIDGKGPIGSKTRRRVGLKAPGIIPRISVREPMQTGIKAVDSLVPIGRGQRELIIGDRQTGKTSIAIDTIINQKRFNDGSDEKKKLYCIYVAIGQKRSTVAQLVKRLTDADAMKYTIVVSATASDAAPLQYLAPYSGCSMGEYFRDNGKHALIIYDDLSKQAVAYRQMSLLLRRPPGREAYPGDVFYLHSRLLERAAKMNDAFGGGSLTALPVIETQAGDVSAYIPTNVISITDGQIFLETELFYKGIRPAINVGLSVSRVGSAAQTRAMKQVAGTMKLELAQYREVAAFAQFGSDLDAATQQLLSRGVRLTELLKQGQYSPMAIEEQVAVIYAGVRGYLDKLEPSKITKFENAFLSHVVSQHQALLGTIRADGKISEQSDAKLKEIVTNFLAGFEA

O=C(N[C@H]1COC(=O)[C@@H](NC(=O)c2cccc(O)c2O)COC(=O)[C@@H](NC(=O)c2cccc(O)c2O)COC1=O)c1cccc(O)c1O [Ent, enterobactin]
level of 55Fe in ATP5A1-IP samples (ATP5A1): increased
growth rate (weight gain) (mice): increased growth rate
decrease in Calcein AM fluorescence with Ent addition (HEK293 cells; medium with DFO, Ent 1.5 uM): 45%
iron level recovery (HEK293 cells; medium with DFO, Ent 1.5 uM): mostly recovered; also recorded: largely recovered
increase of cellular iron uptake (HEK293 cells; standard culture medium): ~33%
iron level gain with Ent supplementation (C. elegans [1]; atp-1 RNAi, entF- mutant bacteria): eliminated the iron level gain
iron level in worms (calcein AM and pftn-2::GFP) (C. elegans [1]; growth-arrested worms fed heat-killed E. coli only): such a defect was suppressed
iron level and growth rate defects (C. elegans [1]; iron-deficient condition, worms treated with CaEDTA): both defects were suppressed
iron level in worms (calcein AM fluorescence) (C. elegans [1]; worms fed entA- or entF- mutant bacteria with heat-killed E. coli): recovered
amount of FeCl3 (175 ug/ul) with equivalent effect on calcein-AM fluorescence decrease (C. elegans [1]; worms treated with CaEDTA): 10 µL
iron level increase attributed to Ent-mediated iron uptake (C. elegans [1]; worms treated with CaEDTA): ≥ 10 fold
mitochondrial morphology (mtGFP) (C. elegans [2]): did not disrupt mitochondrial morphology
iron level in the spleen ([3]; oral gavage): increased in the spleen
hemoglobin level ([3]; oral gavage once every two days for two weeks): partially but significantly recovered
increase in 55Fe level in mitochondria (mitochondria): 10 fold
effect on cellular iron level ([4]; iron-poor/DFO condition): more pronounced
cellular iron level ([4]; standard medium): modestly increased the cellular iron level
activity of succinate dehydrogenase (succinate dehydrogenase): significantly increased
entry into cells (CAS staining, siderophore level) (HEK293T cells): can enter
increase in 55Fe associated with ATP-1-IP (ATP-1; whole worm lysates): > 10 fold
binding of ATP-1 to 55Fe (ATP-1; worm lysates): dramatically increased
MEL differentiation to red blood cells (MEL cells): decrease in differentiation
